Test [1] deals with compound 48/80-induced lethality (antihistaminic (H1) activity). The experiment in a line: Inhibitory effect on compound 48/80-induced lethality in rats (antihistaminic activity). Conditions: Rattus norvegicus, po, 2 h; 1 mg/kg orally one hour before compound 48/80 (1 mg/kg i.v.); survival after two hours; read-out: Survival rate. Format: in vivo, rat (male Wistar). The method, then:
1. Inhibitory Effects on Compound 48/80-Induced Lethality in Rats (Antihistaminic Activity)
The evaluation of antihistaminic activity was carried out according to the method of Niemegeers et al. (Arch. Int. Pharmacodyn. Ther., 234, 164 (1978)).
Male Wistar rats, 6 weeks of age, were used in the experiments. Compound 48/80 (formaldehyde condensation product of p-methoxy-N-methylphenethylamine) was administered intravenously to rats at a lethal dose of 1 mg/kg. Survival rates were determined according to an all or non criteria by using the numbers of rats that survived after two hours. Test compounds (1 mg/kg) were administered orally to rats one hour before the administration of compound 48/80.

Test [2] has as its system 48 h homologous passive cutaneous anaphylaxis (PCA). The experiment in a line: Inhibitory effects on 48 h homologous passive cutaneous anaphylaxis (PCA) in rats (antiallergic activity). The class given is in vivo, rat (male Wistar). Conditions: 1 mg/kg orally one hour before antigen challenge. The method, then:
2. Inhibitory Effects on 48 h Homologous Passive Cutaneous Anaphylaxis (PCA) in Rats (Antiallergic Activity)
The induction and evaluation of antiallergic activity were carried out according to the method of Makino et al. (Japan J. Pharmacology, 52, 87 (1990)).
Male Wistar rats, 6 weeks of age, were passively sensitized by intracutaneous injection on the back at a volume of 0.1 ml of 20- or 40-fold diluted anti-DNP-As rat serum. After 48 hours, the animals were challenged by an intravenous injection of 0.5 ml saline solution containing 1 mg of DNP-As and 5 mg of Evans blue. The animals were sacrificed 30 minutes after the challenge and then the extravasated dye was extracted with 1N KOH and acetone. After neutralization with 1N H3 PO4, the amount of dye was determined by measuring the absorbance of the extract at 620 nm. Test compounds (1 mg/kg) were orally administered to rats one hour before the antigen challenge. The inhibitory activity of test compounds were obtained as percent inhibition of PCA by comparing the results obtained from control rats.

For test [3], the system named is histamine-induced bronchoconstriction. Description: Inhibitory effects on histamine-induced bronchoconstriction in anesthetized guinea-pigs (antiasthmatic activity). The class given is in vivo, guinea-pig (male Hartley). Conditions: for ED50: Cavia porcellus, 2 h, read-out: Antiasthmatic activity (B) ED50. The method, then:
3. Inhibitory Effects on Histamine-Induced Bronchoconstriction in Anesthetized Guinea-Pigs (Antiasthmatic Activity)
The induction and evaluation of antiasthmatic activity were carried out according to the method of Makino et al. (J. Pharm. Pharmacol., 42, 236 (1990)).
Male Hartley guinea-pigs, 6 weeks of age, were anesthetized with urethane ( 1.5 g/kg, i.p. ). The carotid artery and jugular vein were cannulated to measure arterial blood pressure and to facilitate intravenous histamine administration. The trachea was cannulated and the animals were ventilated using a respiratory pump (60 strokes/min; 4 ml/stroke). Changes in insufflation pressure induced by the administration of histamine (20 μg/kg, i.v.) at a constant airflow were constantly monitored as percentage values based on the maximum pressure (100%) (Bronchospasm tramsducer 7020, Ugo Basile). Test compounds were administered orally to animals two hours before the administration of histamine. The ED50 values (doses which induce 50% inhibition of histamine-induced broncho-constriction compared to inhibition observed in control) were calculated using dose-inhibition curves.

Test [4] concerns the target T1, histamine (H1) receptor (Cavia porcellus, UniProt P31389).
T1 construct: Separated cerebral cortices were homogenized in 50-folds volume of 50 mM Na/K-phosphate buffer (pH 7.4); from tissue; host or cells: guinea-pig cerebral cortex, crude membrane fraction (homogenate)
The experiment in a line: Inhibitory effects on ex vivo [^3 H]-mepyramine binding to guinea-pig cerebral cortex (degree of penetration into brain). The class given is in vivo, guinea-pig (male Hartley). Conditions: for ED50: 2 h, oral, two hours, ex vivo [^3 H]-mepyramine binding, guinea-pig cerebral cortex, read-out: Degree of penetration activity (A) ID50; for Selectivity (C/B): ratio of ID50 (brain penetration, C) to ED50 (antiasthmatic activity, B). The method, then: 4. Inhibitory Effects on Ex Vivo [^3 H]-Mepyramine Binding to Guinea-Pig Cerebral Cortex (Degree of Penetration into Brain)
The evaluation of histamine (H1) receptor affinity on guinea-pig cerebral cortex was carried out according to the method of Ahn et al. (Eur. J. Pharmacol., 127, 153 (1986)).
Male Hartley guinea-pigs, 6 weeks of age, were administered orally with test compounds or vehicles. After two hours, animals were killed by exsanguination and brains were rapidly isolated. Separated cerebral cortices were homogenized in 50-folds volume of 50 mM Na/K-phosphate buffer (pH 7.4). These homogenates were used as crude membrane fractions for receptor binding assay. [^3 H]-mepyramine was used as a radio-active ligand. […] The ID50 values (doses which induce 50% inhibition of specific binding of vehicle treated group) were calculated using dose-inhibition curves.

In test [5] the target is muscarinic acetylcholine receptor. The experiment in a line: Inhibition of [^3 H]-QNB binding to rat cerebral cortex membrane (muscarinic acetylcholine receptor binding assay). The settings on record: -log Ki by Cheng and Prusoff.
Where [6] appears, read: oral, two hours before histamine (20 μg/kg, i.v.), anesthetized guinea-pigs.

Molecules are shown by their SMILES. Structures can show the parent of a compound that is named as a salt. Where two headings read alike, the source gives them in different places.

T1 sequence (P31389 whole entry): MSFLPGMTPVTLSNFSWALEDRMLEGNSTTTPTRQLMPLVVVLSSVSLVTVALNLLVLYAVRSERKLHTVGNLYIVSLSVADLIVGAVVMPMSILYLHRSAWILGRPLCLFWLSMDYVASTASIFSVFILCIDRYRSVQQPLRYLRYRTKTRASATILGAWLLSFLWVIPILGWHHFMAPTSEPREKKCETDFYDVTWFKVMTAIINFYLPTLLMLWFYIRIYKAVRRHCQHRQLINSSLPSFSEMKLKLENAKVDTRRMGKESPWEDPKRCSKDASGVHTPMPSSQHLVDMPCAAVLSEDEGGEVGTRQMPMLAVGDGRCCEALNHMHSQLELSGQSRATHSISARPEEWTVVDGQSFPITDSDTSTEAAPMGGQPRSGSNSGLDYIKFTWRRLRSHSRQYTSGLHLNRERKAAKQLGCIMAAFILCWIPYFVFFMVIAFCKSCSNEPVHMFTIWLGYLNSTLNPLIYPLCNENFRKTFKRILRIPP

As to `O=C(O)CCN1CCC(=C2c3ccccc3OCc3cccnc32)CC1` [Example 1-(2), 3-[4-(5,11-Dihydrobenz[b]oxepino[4,3-b]pyridin-11-ylidene)piperidino]propionic Acid.Hydrochloride], in test [1], the responders at 1 mg/kg stood at 80%. Besides, the “Antiallergic activity (A) inhibition (%)” value in test [2] is listed as 80%. The ED50 in test [3] (setting [6]) was 0.082 mg/kg. In test [4], the ED50 came to 36 mg/kg and the “Selectivity (C/B)” value is reported as 439.

What is called pKi is −log10 of the Ki, conventionally taken in molar units. For the compound `O=C(O)CCN1CCC(=C2c3ccc(F)cc3OCc3cccnc32)CC1` [Example 2-(2), 3-[4-(8-Fluoro-5,11-dihydrobenz[b]oxepino[4,3-b]pyridin-11-ylidene)piperidino]propionic Acid], in test [1], the responders at 1 mg/kg was determined as 100%. The “Antiallergic activity (A) inhibition (%)” value in test [2] is on record as 78%. For the same compound, the ED50 in test [3] (setting [6]) came to 0.046 mg/kg. Further, in test [4], the ED50 came to 32 mg/kg and the “Selectivity (C/B)” value is given as 696. In test [5], this compound gave a pKi of under 5.

On to `O=C(O)CCN1CCC(=C2c3cccc(Cl)c3OCc3cccnc32)CC1` [Example 4-(2), 3-[4-(7-Chloro-5,11-dihydrobenz[b]oxepino[4,3-b]pyridin-11-ylidene)piperidino]propionic Acid. Hydrochloride], for which the responders at 1 mg/kg in test [1] was found to be 100%.

Consider `O=C(O)CCN1CCC(=C2c3ccc(Cl)cc3OCc3cccnc32)CC1` [Example 5-(2), 3-[4-(8-Chloro-5,11-dihydrobenz[b]oxepino[4,3-b]pyridin-11-ylidene)piperidino]propionic Acid. Hydrochloride], for which, in test [1], the responders at 1 mg/kg turned out to be 100%. For the same compound, in test [2], the “Antiallergic activity (A) inhibition (%)” value amounted to 79%. The ED50 in test [3] (setting [6]) came to 0.023 mg/kg. Besides, in test [4], the ED50 came to 53 mg/kg and the “Selectivity (C/B)” value stood at 2304. This compound displayed a pKi in test [5] of under 5.

Take `O=C(O)CCN1CCC(=C2c3cc(Cl)ccc3OCc3cccnc32)CC1` [Example 6-(2), 3-[4-(9-Chloro-5,11-dihydrobenz[b]oxepino[4,3-b]pyridin-11-ylidene)piperidino]propionic Acid]: in test [1], the responders at 1 mg/kg was 100%.

Consider `O=C(O)CCN1CCC(=C2c3ccccc3Oc3cccnc32)CC1` [Example 8-(2), 3-[4-(10H-benzo[b]pyrano[3,2-b]pyridin-10-ylidene)piperidino]propionic Acid], for which the responders at 1 mg/kg in test [1] was 100%.

With `O=C(O)CCN1CCC(=C2c3ccc(F)cc3Oc3cccnc32)CC1` [Example 9-(2), 3-[4-(7-Fluoro-10H-benzo[b]pyrano[3,2-b]pyridin-10-ylidene)piperidino]propionic Acid], the responders at 1 mg/kg in test [1] amounted to 100%.

On to `O=C(O)CCCN1CCC(=C2c3ccc(F)cc3OCc3cccnc32)CC1` [Example 10-(2), 4-[4-(8-Fluoro-5,11-dihydrobenz[b]oxepino[4,3-b]pyridin-11-ylidene)piperidino]butyric Acid], for which, in test [1], the responders at 1 mg/kg is 100%.

In the case of `O=C(O)CCCCN1CCC(=C2c3ccc(F)cc3OCc3cccnc32)CC1` [Example 11-(2), 5-[4-(8-Fluoro-5,11-dihydrobenz[b]oxepino[4,3-b]pyridin-11-ylidene)piperidino]valetic Acid], the responders at 1 mg/kg in test [1] came to 100%.

For the compound `O=C(O)CCCCCN1CCC(=C2c3ccc(F)cc3OCc3cccnc32)CC1` [Example 12-(2), 6-[4-(8-Fluoro-5,11-dihydrobenz[b]oxepino[4,3-b]pyridin-11-ylidene)piperidino]hexanoic Acid . Hydrochloride], the responders at 1 mg/kg in test [1] was 100%.

Consider `CC(CN1CCC(=C2c3ccc(F)cc3OCc3cccnc32)CC1)C(=O)O` (stereo not shown) [Example 14-(2), 3-[4-(8-Fluoro-5,11-dihydrobenz[b]oxepino[4,3-b]pyridin-11-ylidene)piperidino]-2-methylpropionic Acid], for which the responders at 1 mg/kg in test [1] came out at 100%.

`O=C(O)CCCN1CCC(=C2c3ccc(Cl)cc3OCc3cccnc32)CC1` [Example 18-(2), 4-[4-(8-Chloro-5,11-dihydrobenz[b]oxepino[4,3-b]pyridin-11-ylidene)piperidino]butyric Acid. Hydrochloride]: in test [1], the responders at 1 mg/kg worked out at 80%.

As to `O=C(O)CCCCN1CCC(=C2c3ccc(Cl)cc3OCc3cccnc32)CC1` [Example 20-(2), 5-[4-(8-Chloro-5,11-dihydrobenz[b]oxepino[4,3-b]pyridin-11-ylidene)piperidino]valeric Acid. Hydrochloride], the responders at 1 mg/kg in test [1] is 100%.

Consider `O=C(O)CCCCCN1CCC(=C2c3ccc(Cl)cc3OCc3cccnc32)CC1` [Example 21-(2), 6-[4-(8-Chloro-5,11-dihydrobenz[b]oxepino[4,3-b]pyridin-11-ylidene)piperidino]hexanoic Acid . Hydrochloride], for which the responders at 1 mg/kg in test [1] is 100%.

For the compound `O=C(O)CCCN1CCC(=C2c3ccc(F)cc3Oc3cccnc32)CC1` [Example 23-(2), 4-[4-(7-Fluoro-10H-benzo[b]pyrano[3,2-b]pyridin-10-ylidene)piperidino]butyric Acid], the responders at 1 mg/kg in test [1] was found to be 100%.

For `CN1CCC(=C2c3ccccc3CCc3cccnc32)CC1` [Reference compound A, Azatadine, reference compound], the responders at 1 mg/kg in test [1] turned out to be 60%. Also, the “Antiallergic activity (A) inhibition (%)” value in test [2] is reported as 77%. Also, in test [3] (setting [6]), the ED50 was 0.001 mg/kg. In test [4], the ED50 came to 0.028 mg/kg and the “Selectivity (C/B)” value was determined as 28. In test [5], this compound came in with a pKi of 8.47.

In the case of `CCOC(=O)N1CCC(=C2c3ccc(Cl)cc3CCc3cccnc32)CC1` [Reference compound B, Loratadine], the responders at 1 mg/kg in test [1] is 60%. In addition, in test [2], the “Antiallergic activity (A) inhibition (%)” value worked out at 38%. The ED50 in test [3] (po) is 0.13 mg/kg. The pKi in test [5] is on record as 6.04.

`CC(=O)N1CCC(=C2c3ccc(Cl)cc3OCc3cccnc32)CC1` [Reference compound C]: the responders at 1 mg/kg in test [1] was found to be 20%. The “Antiallergic activity (A) inhibition (%)” value in test [2] is given as -11%. Moreover, in test [3] (setting [6]), the “Antiasthmatic activity (B) ED50” value is recorded as “No effect (1 mg/kg)”. For the same compound, the pKi in test [5] is recorded as 5.72.

For `CCOC(=O)CN1CCC(=C2c3ccc(Cl)cc3CCc3cccnc32)CC1` [Reference compound D, reference compound], the responders at 1 mg/kg in test [1] worked out at 40%. For the same compound, in test [2], the “Antiallergic activity (A) inhibition (%)” value worked out at 41%. For the same compound, the ED50 in test [3] (setting [6]) amounted to 0.29 mg/kg. Also, in test [4], the ED50 was 11 mg/kg and the “Selectivity (C/B)” value stood at 38. Moreover, in test [5], the pKi was determined as 5.84.

(Values after patent US5334594A, “Amphoteric tricyclic compound” (Hokoriku Pharmaceutical Co., Ltd., priority 1992, dated 1994).)
